Like-named read-outs stand apart in the source and are kept apart here. Each block holds one molecule with its values, some of them ahead of it.
Experiments:
experimental cataracts = details: cited from earlier work
lens proteins = details: in vitro; cited from earlier work
[1] = tested on: cataracts in x-ray irradiated rats; details: cited from earlier work
rat lenses [2] = assay: Rubidium-86 accumulation by cultured rat lenses (H2O2 stress); format: cell-based, Sprague-Dawley rat; details: for prevention of decrement in Rb-86 accumulation associated with H2O2 exposure: 0.25 mM H2O2, agent added at beginning of assay; for effect on Rb-86 accumulation of control lenses: added to medium of control lenses at beginning of assay, no H2O2
Method: (§1) Such assays are accepted as an indication of the in vivo effect of a drug in retarding the development of cataracts.
(§2) The techniques described in references 10 and 11 were used in this assay. Rat lenses used in these studies were obtained from Sprague-Dawley male rats. The lenses were incubated in 24-well clusters in modified TC-199 medium (prepared as described in Zigler and Hess, Exp. Eye Res. 41:67, 1985) and placed in a 37° C. incubator with a 95% air/5% CO2 humidified atmosphere. The lenses were incubated in about 2.0 ml of culture medium, which was adjusted to about 300 milliosmoles. The assays were usually of 22 hours duration, and tracer levels of ^86 Rb or tritiated choline were added at 18 hours so that the tracer was present during the last four hours of the assay.
Two potential anti-cataract agents were tested in this experiment: E-64 (a protease inhibitor) and pantetheine (a putative phase separation inhibitor) were added to the culture medium at the beginning of the assay.
(§3) The experiment was performed essentially as described for Example 2, except that TEMPOL-H was added at 3 or 4 mM or was added at 3 mM together with MPG at either 0.5 or 1 mM.

rat lenses [3] = assay: Tritiated choline accumulation by cultured rat lenses (H2O2 stress); format: cell-based, Sprague-Dawley rat; details: for reduction of the H2O2-induced decrement of tritiated choline concentration: 0.25 mM H2O2, MPG 1 mM, TEMPOL-H 5 mM
Method: as §1, §2
(§4) Rat lenses were cultured as described in reference 11 and Example 1. H2 O2 was added to experimental cultures to a concentration of 0.25 mM. Carnosine at 1 mM, MPG at 1 mM, or TEMPOL-H at 5 mM was added to some of the treated lenses at the beginning of the culture assay.
as §3

[4] = Systemic/ocular delivery of MPG by osmotic pump, detection in the eye; format: in vivo, Sprague Dawley albino rats; details: subcutaneous, intraperitoneal and ocular routes; 2 ml of 100 mM over 7 or 14 days
Method: (§5) A 2 ml volume of 100 mM TEMPOL-H was provided in an ALZET osmotic pump, available from Alza Corporation of Palo Alto, Calif. The pump was programmed to deliver the 2 ml dose continuously (down an osmotic gradient) over a period of either 7 or 14 days.
The reducing agent MPG was also delivered to the subjects by subcutaneous, intraperitoneal and ocular routes, as described in Example 7, through an implanted osmotic pump. A 2 ml volume of 100 mM MPG was provided in the pump and delivered over a period of 7 days or 14 days.

cells = details: reported by Mitchell and colleagues; cited from earlier work
lens = assay: Lens penetration and redox state by EPR of lens homogenate; format: in vitro ADME, rat
Excerpt: TEMPOL-H is the reduced form of the nitroxide TEMPOL, which is a stable free radical detectable by electron paramagnetic resonance (EPR) spectroscopy, as in reference 12. TEMPOL-H can be readily converted to TEMPOL by oxidation with ferricyanide, and then can be quantitated by EPR spectroscopy. This provides a ready means of determining whether TEMPOL-H is present in experimental lenses and whether it is in the oxidized or reduced state. […] TEMPOL-H can in turn be oxidized to the nitroxide by dehydrogenases and activated oxygen species, such as singlet oxygen.
as §4
Following lens incubation, lenses were rinsed, then homogenized in buffer and aliquots of the homogenate analyzed by EPR. […] Only following treatment of the lens extract with ferricyanide was the nitroxide detected.

[5] = Systemic delivery of TEMPOL-H by osmotic pump, plasma and eye concentrations; format: in vivo, Sprague Dawley albino rats; details: subcutaneous osmotic pump, 2 ml of 100 mM over 7 or 14 days
Method: as §5
In the rats who received subcutaneous delivery of the hydroxylamine, plasma TEMPOL-H concentrations of 0.25 μM were observed.

rat lenses [6] = format: cell-based; details: 1.0 mM H2O2 plus 4 mM TEMPOL-H, 24 hours
Method: Lenses were cultured as in the above examples.

Structure (SMILES): CC(=O)Oc1ccccc1C(=O)O [Aspirin]
delay of experimental cataracts (experimental cataracts): shown to delay experimental cataracts

Structure (SMILES): O=C(O)COc1nn(Cc2ccccc2)c2ccccc12 [Bendazac]
protection of lens proteins (lens proteins): found to protect lens proteins in vitro | delay of onset of cataracts [1]: delay the onset of cataracts in x-ray irradiated rats

Structure (SMILES): CC(C)CC(NC(=O)C1OC1C(=O)O)C(=O)NCCCCNC(=N)N (stereo not shown) [E-64]
prevention of decrement in Rb-86 accumulation associated with H2O2 exposure (rat lenses [2]): neither prevented the decrement in accumulation | effect on Rb-86 accumulation of control lenses (rat lenses [2]): small negative effect on Rb-86 accumulation

Structure (SMILES): OO [H2 O2, hydrogen peroxide]
Rb-86 accumulation (internal concentration relative to concentration in the medium) (rat lenses [2]; H2O2 bolus 0.25 mM, normal control lenses more than 7-fold): 5 fold

detection of MPG in the eye [4]: detected in the eye
Structure (SMILES): CC(S)C(=O)NCC(=O)O (stereo not shown) [MPG, N-(2-mercaptopropionyl) glycine]
reduction of the H2O2-induced decrement of tritiated choline concentration (rat lenses [3]): significant reduction in the decrement of tritiated choline concentration

Structure (SMILES): CC1(C)CC(O)CC(C)(C)N1[O] [TEMPOL, 4-hydroxy-2,2,6,6-tetramethylpiperidin-1-yloxy]
protection of cells from oxidative damage (cells): protects cells from oxidative damage

Structure (SMILES): CC1(C)CC(O)CC(C)(C)N1O [TEMPOL-H]
effect on Rb-86 accumulation in lenses exposed to H2O2, dose response / combination (rat lenses [2]; TEMPOL-H 3 or 4 mM, or 3 mM with MPG 0.5 or 1 mM (FIG. 6)): dose response effect | penetration of the lens from the culture medium (lens; EPR after lens incubation, TEMPOL-H 5 mM): does penetrate the lens from the culture medium | redox state within the lens (lens; nitroxide detected only following ferricyanide treatment of lens extract): the highly reducing environment within the lens keeps the compound in the reduced state | reduction of the H2O2-induced decrement of tritiated choline concentration (rat lenses [3]): significant reduction in the decrement of tritiated choline concentration | effect on 3H-choline accumulation in lenses exposed to H2O2, dose response / combination (rat lenses [3]; TEMPOL-H 3 or 4 mM, or 3 mM with MPG 0.5 or 1 mM (FIG. 5)): dose response effect | concentration ([5]; read-out: concentration in the eye): 20 nM | concentration ([5]; read-out: plasma TEMPOL-H concentration): 250 nM | protection of cells from oxidative damage (cells): affords no such protection | inhibition of opacification of cultured lenses (rat lenses [6]): clearly and consistently was found to inhibit opacification of the cultured lenses

Structure (SMILES): CC(=O)Nc1ccc(O)cc1 [acetaminophen]
delay of experimental cataracts (experimental cataracts): shown to delay experimental cataracts

Structure (SMILES): CC(C)Cc1ccc(C(C)C(=O)O)cc1 (stereo not shown) [ibuprofen]
delay of experimental cataracts (experimental cataracts): shown to delay experimental cataracts

Structure (SMILES): CC(C)(CO)[C@@H](O)C(=O)NCCC(=O)NCCS [pantetheine]
prevention of decrement in Rb-86 accumulation associated with H2O2 exposure (rat lenses [2]): neither prevented the decrement in accumulation | effect on Rb-86 accumulation of control lenses (rat lenses [2]): small negative effect on Rb-86 accumulation
